Assay results as given in paper PMC6993238, “Development of a new class of PSMA radioligands comprising ibuprofen as an albumin-binding entity” (Theranostics, 2020).

Tests used:
[1] = Radiolytic stability at high activity concentration (HPLC); assay type: physicochemical; conditions: 24 h, saline with L-ascorbic acid (3 mg), 250 MBq/500 μL, room temperature
Experimental: The radiolytic stability of the PSMA radioligands (50 MBq/nmol) was determined at a high activity concentration (250 MBq/500 μL saline) over a period of 24 h in the absence or presence of L-ascorbic acid (3 mg). The samples were kept at room temperature and aliquots were taken 1 h, 4 h and 24 h after labeling in order to determine the amount of intact radioligand using HPLC as previously reported (Supplementary Material), [29].
Methods: Radioly tic stability of each PSMA radioligand was assessed over a period of 24 h. For this purpose, Ibu-PSMA, Ibu-Dα-PSMA, Ibu-N-PSMA and Ibu-DAB-PSMA were labeled with 177Lu in a volume of 120 µL at a molar activity of 50 MBq/nmol. After quality control using HPLC (t = 0, radiochemical purity ≥ 96%), the labeling solutions were diluted with saline to 250 MBq/500 µL and radioligand integrity was determined for each radioligand with and without addition of L-ascorbic acid (3 mg). The radioligand dilutions were incubated at room temperature and radioligand degradation was determined by HPLC after 1 h, 4 h and 24 h incubation time as previously reported. The HPLC chromatograms were analyzed by integration of the peaks representing the radiolabeled product, the released 177Lu as well as degradation products of unknown structure (Figure S3). […]

mouse plasma proteins = assay: Ultrafiltration assay, binding to mouse plasma proteins; assay type: in vitro ADME; conditions: 37 °C, 30 min
Experimental: (§1) In short, the PSMA ligands were labeled with ^177Lu at a molar activity of 50 MBq/nmol, diluted in PBS (pH 7.4) to an activity concentration of 10 MBq/500 μL and incubated in mouse or human plasma at 37 °C for 30 min. After incubation, each sample was loaded on a centifree ultrafiltration device (4104 centrifugal filter units; Millipore, 30000 Da nominal molecular weight limit, methylcellulose micropartition membranes) and centrifuged at 2000 rpm for 40 min at 20 °C to allow the separation of the unbound and plasma-bound radioligand fractions. Samples from the loading solution and samples from the filtrate were taken and counted for radioactivity in a γ-counter. The amount of plasma-bound radioligand was calculated as the fraction of radioactivity measured […] relative to the corresponding loading solution (set to 100%). Control experiments were performed with each radioligand by incubation in PBS (pH 7.4) prior to filtration in order to determine the unspecific binding of the radioligands to the filter membrane. The experiments were performed at least three times for each radioligand. A one-way ANOVA with a Tukeys's multiple comparison post-test was used for statistical analysis in GraphPad Prism software (version 7). A p-value of <0.05 was considered statistically significant.

human plasma proteins = assay: Ultrafiltration assay, binding to human plasma proteins; assay type: in vitro ADME; conditions: 37 °C, 30 min
Experimental: as §1

PSMA = molecular target: T1, PSMA (Homo sapiens, UniProt Q04609); assay: Determination of KD values (saturation binding on PC-3 PIP tumor cells); conditions: 30 min at 4 °C, 2-PMPA block for non-specific binding
T1 construct: expressed in transfected cells; host or cells: PC-3 PIP (PSMA-transfected subline of human PC-3 prostate cancer cells), provided by Prof; Martin Pomper
Experimental: The KD values, indicating the PSMA-binding affinity of the radioligands, were determined using PC-3 PIP tumor cells. The cells were seeded in 48-well-plates (8 x 10^4 cells in 500 µL RPMI medium/well) allowing adhesion and growth overnight. During the experiment, well plates were kept on ice. After removal of the supernatant, the cells were washed once with ice-cold PBS (pH 7.4) before addition of different concentrations (1‒2000 nM) of the radiolabeled PSMA ligands (5 MBq/nmol) in ice-cold RPMI medium without supplements. Some of the PC-3 PIP tumor cell samples were co-incubated with 2-phosphonomethyl pentanedioic acid (2-PMPA, 200 μM) to block PSMA enabling the determination of non-specific binding. After incubation of the well-plates for 30 min at 4 °C, the supernatants were removed and the cells washed twice with ice-cold PBS. The cells were lysed (NaOH, 1 M, 600 µL) and transferred to 4 mL tubes for counting the activity in a γ-counter (Wallac Wizard 1480, Perkin Elmer). The KD values were determined by plotting specific binding (total binding minus unspecific binding determined with blocking agent) against the molar concentration of the added radioligands. […] Statistical significance was assessed using a one-way ANOVA with a Tukeys's multiple comparison post-test in GraphPad Prism software (version 7). […]

[2] = system: non-tumor-bearing athymic BALB/c nude mice; assay: In vivo excretion, whole-body activity measurement; design: species or system mouse; conditions: 4 h p.i.; activity right after injection = 100%
Experimental: 14. Determination of the in vivo excretion of the radioligands
Methods: In order to determine the retention and excretion of each radioligand, non-tumor-bearing athymic BALB/c nude mice were injected with each radioligand (n = 2−3; per radioligand). The mice were measured for radioactivity immediately after injection and at several time points after injection up to 56 h p.i. (Figure S8). The PSMA ligands were, therefore, labeled at a molar activity of 25 MBq/nmol and diluted in saline containing 0.05% bovine serum albumin (BSA). Mice were intravenously injected with the respective radioligand (25 MBq, 1 nmol, 100 µL) and – after e mptying the urinary bladder – measured in a dose calibrator immediately (t = 0) and at various time points after injection up to 56 h p.i..
The activity measured right after injection was set as 100%. The data points present the average of three mice per radioligand ± standard deviation (SD). […]
to the albumin-binding properties of the incorporated ibuprofen. The ibuprofen-bearing radioligands […]
p-tolyl moiety as stronger albumin binder. […]
excretion patterns for the single radioligands, which was manifested most prominently between 1 h and 4 h p.i. At all measured time points, retention was highest for the radioligand without additional linker entity, 177Lu-Ibu-PSMA. […]
Figure S8. […] The activity measured right after injection was set as 100%. […]

[3] = n-octanol/PBS; cited from earlier work
[4] = system: PC-3 PIP/flu tumor-bearing mice; design: method as in Benešová et al. 2018 [1]; AUC value PC-3 PIP tumor / AUC value Blood / AUC value Kidneys / AUC value Liver / AUC value Salivary glands: concentration or dose not given beside the values; conditions: previously published, ref Benešová et al. 2018 [1], cited from earlier work

T1 sequence (Q04609 whole entry): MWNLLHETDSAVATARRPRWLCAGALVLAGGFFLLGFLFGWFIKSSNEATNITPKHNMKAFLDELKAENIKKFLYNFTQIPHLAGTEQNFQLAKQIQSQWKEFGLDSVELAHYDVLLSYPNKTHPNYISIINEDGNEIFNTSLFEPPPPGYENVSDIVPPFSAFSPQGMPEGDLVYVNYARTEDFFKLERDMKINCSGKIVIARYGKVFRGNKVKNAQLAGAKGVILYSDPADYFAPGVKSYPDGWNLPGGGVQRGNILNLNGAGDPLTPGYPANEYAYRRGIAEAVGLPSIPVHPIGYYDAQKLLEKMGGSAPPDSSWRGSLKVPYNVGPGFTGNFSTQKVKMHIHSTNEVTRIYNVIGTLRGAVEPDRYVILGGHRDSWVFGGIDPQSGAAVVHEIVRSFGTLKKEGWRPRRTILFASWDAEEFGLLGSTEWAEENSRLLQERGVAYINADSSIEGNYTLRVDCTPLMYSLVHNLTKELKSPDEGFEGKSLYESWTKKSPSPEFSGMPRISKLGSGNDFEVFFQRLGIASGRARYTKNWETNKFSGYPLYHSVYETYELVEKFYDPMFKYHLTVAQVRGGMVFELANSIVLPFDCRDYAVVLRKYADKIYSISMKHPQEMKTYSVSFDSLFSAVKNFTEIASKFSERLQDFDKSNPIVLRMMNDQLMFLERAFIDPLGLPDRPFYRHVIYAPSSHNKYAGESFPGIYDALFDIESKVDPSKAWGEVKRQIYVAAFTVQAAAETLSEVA

O=C([O-])CN1CCN(CC(=O)[O-])CCN(CC(=O)NCC2CCC(C(=O)N[C@@H](Cc3ccc4ccccc4c3)C(=O)NCCCC[C@H](NC(=O)N[C@@H](CCC(=O)O)C(=O)O)C(=O)O)CC2)CCN(CC(=O)[O-])CC1.[177Lu+3] (stereo partly drawn) [^177Lu-PSMA-617]
intact radioligand [1]: over 91%
binding to mouse plasma proteins (bound fraction) (mouse plasma proteins): 6.0 ± 2%
binding to human plasma proteins (bound fraction) (human plasma proteins): 59 ± 1%
Kd (PSMA): 13 ± 1 nM
body retention of activity [2]: 3.2%
logD value [3]: -4.4 ± 0.2
AUC value Blood ([4]; non-decay-corrected data): 52 ± 2 % IA/g*h
AUC value Kidneys ([4]; non-decay-corrected data): 99 ± 11 % IA/g*h
AUC value Liver ([4]; non-decay-corrected data): 6.2 ± 1.6 % IA/g*h
AUC value PC-3 PIP tumor ([4]; non-decay-corrected data): 3691 ± 156 % IA/g*h
AUC value Salivary glands ([4]; non-decay-corrected data): 0.5 ± 0.2 % IA/g*h
Ratio of AUC values AUCTu-to-AUCBl ([4]; tumor-to-blood): 71 ± 6
Ratio of AUC values AUCTu-to-AUCKi ([4]; tumor-to-kidney): 37 ± 6
Ratio of AUC values AUCTu-to-AUCLi ([4]; tumor-to-liver): 592 ± 179
Ratio of AUC values AUCTu-to-AUCSG ([4]; tumor-to-salivary gland): 7382 ± 3265
